Patent US6828473B2, “Modulation of PDE11A activity” (Pfizer Inc., priority 2000, dated 2004)
Where a name gives a salt, the structure may show the parent alone.

Experiments:
[1] = test system: pre-ejaculated epididymal murine spermatozoa; assay: Sperm capacitation measured with chlorotetracycline (CTC); format: cell-based, mouse; settings: for number of capacitated sperm: P<0.001
Description: The extent of capacitation was measured using chlorotetracycline (CTC) and the degree of capacitation was assessed in control and adenosine-5′-triphosphate (ATP)-treated samples. All data is expressed as mean+s.e.mean, n=3, ***=P<0.001, Student's t-test).
Sperm suspensions were prepared by releasing the contents of mouse epididymides from 3 PDE11 knockout (KO) and 3 wild type (WT) mice into Tyrodes media. The extent of capacitation was measured using chlorotetracycline (CTC), 750 μM for 15 min at 37° C. The patterns of CTC fluorescence were observed under microscopy (Reference: Fraser, L. R. & Herod, J. E. Expression of capacitation-dependent changes in chlortetracycline fluorescence patterns in mouse spermatozoa requires a suitable glycolysable substrate. J. Reprod. Fert., 1990; 88(2): 611-21). Patterns reflected the functional state of spermatozoa, i.e. capacitated, uncapacitated and acrosome loss.

recombinant human PDE7 = assay: PDE inhibition SPA assay, PDE7; format: biochemical; settings: geometric mean of at least 3 determinations; substrate <= 1/3 Km
[2] = target: T1, PDE6 isolated from bovine retina (Bos taurus, UniProt P11541+P23439); assay: PDE inhibition SPA assay, PDE6; format: biochemical
T1 construct: PDE6 was isolated from bovine retina; from tissue; host or cells: bovine retina
T1 sequence (P11541 2-856 limits assumed): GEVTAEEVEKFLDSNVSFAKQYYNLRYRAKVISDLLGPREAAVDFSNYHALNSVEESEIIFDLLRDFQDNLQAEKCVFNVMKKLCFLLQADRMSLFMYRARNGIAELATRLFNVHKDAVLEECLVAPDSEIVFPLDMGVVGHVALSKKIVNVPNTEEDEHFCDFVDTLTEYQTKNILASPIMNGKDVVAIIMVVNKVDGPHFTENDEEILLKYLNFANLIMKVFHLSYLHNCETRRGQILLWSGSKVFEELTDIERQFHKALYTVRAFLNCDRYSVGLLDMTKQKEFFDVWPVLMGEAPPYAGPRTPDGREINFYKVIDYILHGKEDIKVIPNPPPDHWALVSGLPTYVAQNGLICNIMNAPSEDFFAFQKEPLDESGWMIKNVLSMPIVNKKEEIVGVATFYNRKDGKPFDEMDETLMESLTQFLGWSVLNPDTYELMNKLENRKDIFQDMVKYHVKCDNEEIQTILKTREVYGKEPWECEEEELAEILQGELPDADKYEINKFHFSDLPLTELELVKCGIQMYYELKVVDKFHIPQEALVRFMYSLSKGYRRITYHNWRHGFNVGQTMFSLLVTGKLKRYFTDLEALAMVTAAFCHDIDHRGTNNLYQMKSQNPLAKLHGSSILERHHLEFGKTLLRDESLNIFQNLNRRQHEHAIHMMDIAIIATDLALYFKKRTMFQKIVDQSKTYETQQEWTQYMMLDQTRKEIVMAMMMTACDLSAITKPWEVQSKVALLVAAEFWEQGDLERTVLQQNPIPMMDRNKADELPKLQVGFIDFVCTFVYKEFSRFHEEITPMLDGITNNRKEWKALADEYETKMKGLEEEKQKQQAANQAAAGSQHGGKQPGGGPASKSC
T1 sequence (P23439 2-850 limits assumed): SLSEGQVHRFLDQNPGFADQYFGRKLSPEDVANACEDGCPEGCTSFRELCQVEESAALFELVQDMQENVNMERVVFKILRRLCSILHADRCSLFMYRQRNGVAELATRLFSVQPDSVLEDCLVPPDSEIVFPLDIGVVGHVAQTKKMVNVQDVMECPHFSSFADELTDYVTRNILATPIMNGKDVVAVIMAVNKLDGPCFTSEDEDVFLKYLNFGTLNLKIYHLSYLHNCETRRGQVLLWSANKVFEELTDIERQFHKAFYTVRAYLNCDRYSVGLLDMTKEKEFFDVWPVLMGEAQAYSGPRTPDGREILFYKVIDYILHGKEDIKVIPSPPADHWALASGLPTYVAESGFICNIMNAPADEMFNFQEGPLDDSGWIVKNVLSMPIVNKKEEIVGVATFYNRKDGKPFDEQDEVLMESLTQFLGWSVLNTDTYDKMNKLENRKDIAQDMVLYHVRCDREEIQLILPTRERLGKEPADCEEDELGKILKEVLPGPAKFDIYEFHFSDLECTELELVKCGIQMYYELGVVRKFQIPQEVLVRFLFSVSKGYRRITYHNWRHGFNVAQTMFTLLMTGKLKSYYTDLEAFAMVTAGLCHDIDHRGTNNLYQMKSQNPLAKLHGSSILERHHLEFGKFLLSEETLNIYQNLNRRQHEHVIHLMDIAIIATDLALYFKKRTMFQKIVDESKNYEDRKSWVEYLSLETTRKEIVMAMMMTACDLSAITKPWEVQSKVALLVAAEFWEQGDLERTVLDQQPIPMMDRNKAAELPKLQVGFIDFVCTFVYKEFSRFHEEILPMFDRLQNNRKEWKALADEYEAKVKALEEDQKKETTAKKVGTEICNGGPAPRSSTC

recombinant human PDE8 = assay: PDE inhibition SPA assay, PDE8; format: biochemical; settings: geometric mean of at least 3 determinations; substrate <= 1/3 Km

| Structure (SMILES) | number of capacitated murine spermatozoa ([1]; 1 hr incubation, both PDE11 KO and WT samples, concentration not given) | number of capacitated sperm ([1]; ATP 1.0 mM, spermatozoa obtained from PDE11 KO mice only) | number of capacitated sperm ([1]; ATP 2.5 mM, 1 hr incubation, all murine spermatozoa samples (PDE11 KO and WT)) | IC50 (recombinant human PDE7) [µM] | IC50 [2] [µM] | IC50 (recombinant human PDE8) [µM] |
| --- | --- | --- | --- | --- | --- | --- |
| Nc1ncnc2c1ncn2[C@@H]1O[C@H](COP(=O)(O)OP(=O)(O)OP(=O)(O)O)[C@@H](O)[C@H]1O [ATP, adenosine-5′-triphosphate] | significantly increased | significantly increased | significantly increased |  |  |  |
| CCCc1nn(C)c2c(=O)[nH]c(-c3cc(S(=O)(=O)N4CCN(C)CC4)ccc3OCC)nc12 [Sildenafil, sildenafil] |  |  |  | 19.7 |  |  |
| O=C(O)C1CCN(c2nc(NCc3ccc4c(c3)OCO4)c3cc(Cl)ccc3n2)CC1 [UK-227,786 (E4021), 1-[4-[(1,3-benzodioxol-5-ylmethyl)amino]-6-chloro-2-quinazolinyl]-4-piperidinecarboxylic acid, monohydrochloride] |  |  |  | > 100 | 4.7 | > 100 |
| CN1CC(=O)N2[C@H](c3ccc4c(c3)OCO4)c3[nH]c4ccccc4c3C[C@@H]2C1=O [UK-336,017 (IC351), (6R, 12aR)-6-(1,3-benzodioxol-5-yl)-2,3,6,7,12,12a-hexahydro-2-methyl-pyrazino[1′,2′:1,6]pyrido[3,4-b]indole-1,4-dione] |  |  |  | > 100 |  | > 100 |
